The record followed here is US10060933B2, “Methods for diagnosis and treatment of amyotrophic lateral sclerosis based on an increased level of interaction between TDP-43 polypeptide and NF-KB P65 polypeptide” (UNIVERSITE LAVAL, priority 2011, dated 2018).

Data set [1] concerns bone-marrow derived macrophages (BMMs). Nature of the data set: Real-time RT-PCR of innate immunity genes in LPS stimulated bone-marrow derived macrophages. It is filed as cell-based, mouse. The settings on record: vs scrambled siRNA. The protocol: (§1) If correct that TDP-43 acts as a co-activator of p65, then reducing the levels of TDP-43 should attenuate p65 activation. To reduce the expression levels of TDP-43, microglial BV-2 cells were transfected with either TDP-43 siRNA or scrambled siRNA together with 4κB^wt-luc vectors. 72 hrs after transfection some of the cells were either stimulated with LPS (100 ng/ml) or mock stimulated for 12 hrs. […] To examine the effect of reducing TDP-43 levels on NF-κB activation, BV-2 cells were transfected with pCMV-p65 and 4κB^wt-luc vectors. TDP-43 siRNA decreased activation of NF-κB reporter gene in transfected cells. The decrease in NF-κB activation was about 3-fold for 5 ng pCMV-p65 (n=4, p<0.01) and about 2.5-fold for 10 and 20 ng pCMV-p65 (n=4, p<0.05) and 2-fold for 50 ng pCMV-p65 (n=4, p<0.05) as compared to scrambled siRNA transfected cells (FIG. 5B). To examine the physiological significance of TDP-43 inhibition by siRNA, we transfected BV-2 cells with ICAM1-luc vector together with TDP-43 siRNA or scrambled siRNA. 72 hrs after transfection, cells were stimulated with varying concentrations of TNF-α. […] We also tested the effect of TDP-43 siRNA transfected in bone-marrow derived macrophages (BMMs) from normal mice. We compared the level of innate immunity activation when stimulated with LPS.
Real-time RT-PCR was performed with a LightCycler 480 (Roche Diagnostics) sequence detection system using LightCycler SYBR Green I at the Quebec genomics Centre, Quebec. Total RNA was extracted from cell culture experiments using Trizol reagent (Invitrogen). Total RNA was treated with DNase (Qiagen, Valencia, Calif., USA) to get rid of genomic DNA contaminations. Total RNA was the quantified using Nanodrop and its purity verified by Bioanalyzer 2100 (Agilent Technologies, Santa Clara, Calif., USA). Gene-specific primers were constructed using the GeneTools (Biotools Inc.) software. 3 genes Atp5, Hprt1 and GAPDH were used as internal control genes. The primers used for the analysis of genes are given in S-Table 2 (Swamp et al. J Exp Med 2011, 208, 2429-2447).
(§2) To selectively prevent TDP-43 expression, we employed the RNA interference technology. A double-stranded RNA (siRNA) was employed to degrade TDP-43 mRNA and thus to limit the available protein. The siRNA experiments were designed and conducted as described earlier^26. The siRNAs directed against the murine TDP-43 mRNA (NM_145556.4) consisted of sequences with symmetrical 3′-UU overhangs using siRNA Target Finder (Ambion, Tex., USA). […] To account for the non-sequence-specific effects, scrambled siRNA was used. The sequence of scrambled siRNA is as follows: 5′-[…]-3′ (SEQ ID NO:19) and 5′-[…]-3′ (SEQ ID NO:20). TDP-43 siRNAs or the scrambled siRNAs were suspended in diethyl […] water to yield desired concentration. For in vitro transfection, cells were plated in 24-well plates and transfected with 0.6 μmol/L siRNAs with 2 μL Lipofectamine 2000 (Invitrogen). The cells were then kept for 72 h in OptiMEM medium (Gibco).
Background: Real-time PCR tracks product formation cycle by cycle.

Data set [2] relates to endogenous mouse TDP-43. Nature of the data set: Western blot of TDP-43 after siRNA transfection of BV-2 cells. It is filed as cell-based. Particulars: vs scrambled siRNA. The protocol: as §1
To selectively prevent TDP-43 expression, we employed the RNA interference technology. […]
For orientation: In western blotting, separated proteins are transferred to a membrane and probed.

Data set [3] has as its system ICAM-1 luciferase activity. The data set can be described thus: ICAM1-luc luciferase assay in TNF-α stimulated BV-2 cells. It is filed as cell-based, mouse. The settings on record: vs scrambled siRNA. The protocol: as §1
(§3) BV2 cells were harvested in 120 μl of cell lysis buffer (Promega, Madison, Wis., USA), and an ensuing 1-min centrifugation step (20,000×g) yielded a luciferase-containing supernatant. In both cases aliquots of 20-μl supernatant were tested for luciferase activity (luciferase assay kit, Promega) and for β-galactosidase activity (β-galactosidase assay kit, Promega) to adjust for transfection efficiency.
To selectively prevent TDP-43 expression, we employed the RNA interference technology. A double-stranded RNA (siRNA) was employed to degrade TDP-43 mRNA and thus to limit the available protein. The siRNA experiments were designed and conducted as described earlier^26. […]

Data set [4] concerns NF-κB. Nature of the data set: 4κB^wt-luc NF-κB reporter gene assay in BV-2 cells. It is filed as cell-based, mouse. The protocol:
as §1, §3, §2

In the case of “TDP-43 siRNA: double-stranded siRNA against murine TDP-43 mRNA: 5′-AGGAAUCAGCGUGCAUAUAUU-3′ (SEQ ID NO:17), 5′-UAUAUGCACGCUGAUUCCUUU-3′ (SEQ ID NO:18) (listed as RNA, chemistry not given here)”, in data set [1], the “reduced levels of Cox-2 mRNA” value was found to be 2 fold, the “reduced levels of IL-1β mRNA” value amounted to 2 fold, the “reduced levels of IL-6 mRNA” value is on record as 2.5 fold and the “reduced levels of IP-10 mRNA” value is listed as 2 fold. For the same substance, in data set [1], the “reduced levels of TLR2 mRNA” value came out at 1.5 fold, the “reduced levels of TNF-α mRNA” value worked out at 3 fold and the “reduced levels of p65 (RELA) mRNA” value is reported as 3 fold. Moreover, in data set [2], the “endogenous mouse TDP-43 levels (western blot)” value is given as “reduced the endogenous mouse TDP-43 levels significantly”. Besides, in data set [3] (0.5 ng/ml TNF-α), the “decrease in ICAM-1 luciferase activity” value is 2 fold. Also, in data set [3] (1.0 ng/ml TNF-α), the “decrease in ICAM-1 luciferase activity” value stood at 2.5 fold. Moreover, the “decrease in ICAM-1 luciferase activity” value in data set [3] (1.5 ng/ml TNF-α) worked out at 2 fold. The “decrease in NF-κB activation (4κB^wt-luc reporter)” value (“decrease in NF-κB activation” below) in data set [4] (5 ng pCMV-p65, vs scrambled siRNA) is given as “about 3 fold”. The “decrease in NF-κB activation” value in data set [4] (10 ng pCMV-p65, vs scrambled siRNA) is listed as “about 2.5 fold”. For the same substance, the “decrease in NF-κB activation” value in data set [4] (20 ng pCMV-p65, vs scrambled siRNA) is recorded as “about 2.5 fold”. Moreover, the “decrease in NF-κB activation” value in data set [4] (50 ng pCMV-p65, vs scrambled siRNA) is recorded as 2 fold.
